Entries after “also recorded” stand apart in the source; their conditions may differ.
Columns and labels:
rTRPV1(Y511G) = rTRPV1(Y511G) (Rattus norvegicus, UniProt O35433, Y511G); conditions: 300 μM; VBS domain mutated
Description: Averaged (n=30 cells) ratiometric calcium responses of HEK293T cells expressing rat TRPV1 (rTRPV1), as a function of time. Application of different SAVA (as indicated; 300 μM; yellow bar) was followed by capsaicin (CAP; 5 μM; red bar). […] Same as B, but recorded from HEK293T cells expressing rTRPV1(Y511G) in which VBS domain is mutated. […] D. Superimposed capsaicin-(1 μM; grey line) and SAVA-(compound 6 in B; 300 μM; black line)-induced currents (Vholding=−40 mV) recorded in whole cell configuration from HEK293T cells expressing the rTRPV1. Recording were done on cells with similar TRPV1 expressing levels (determined by the initial response to pH 5.5). […] E. Current-clamp recording (I=0) in the whole cell configuration from small-diameter (C-fiber) rat TG neurons (P2 old pup).
To verify, that the evoked response of our TRPV1-positive compounds is through the Vanilloid-binding site (VBS), we analyzed their activation profile on TRPV1(Y511 G) construct.
Next, the new scaffolds-evoked TRPV1 currents were analyzed using the voltage-clamp whole-cell configuration of the patch-clamp technique on HEK293T cells stably transfected with the rTRPV1 gene.

[1] = tested on: small-diameter (C-fiber) rat TG neurons; test: Current-clamp whole-cell recording of membrane potential in dissociated TG sensory neurons; assay type: cell-based; conditions: capsaicin 0.2 μM; current clamp I=0; P2 rat TG neurons
Description: In dissociated sensory neurons from the trigeminal ganglion (TG) of P2 rat, the inventors have recorded the membrane potential following the application of the different molecules, using current-clamp mode in the whole-cell configuration. […] In contrast, the compound of the invention have evoked slow (in comparison to capsaicin), ˜20 mV depolarization, with no action potential firing (FIG. 16E, upper trace).

Chain of rTRPV1(Y511G) (O35433 whole entry Y511G, the tested form may be a part): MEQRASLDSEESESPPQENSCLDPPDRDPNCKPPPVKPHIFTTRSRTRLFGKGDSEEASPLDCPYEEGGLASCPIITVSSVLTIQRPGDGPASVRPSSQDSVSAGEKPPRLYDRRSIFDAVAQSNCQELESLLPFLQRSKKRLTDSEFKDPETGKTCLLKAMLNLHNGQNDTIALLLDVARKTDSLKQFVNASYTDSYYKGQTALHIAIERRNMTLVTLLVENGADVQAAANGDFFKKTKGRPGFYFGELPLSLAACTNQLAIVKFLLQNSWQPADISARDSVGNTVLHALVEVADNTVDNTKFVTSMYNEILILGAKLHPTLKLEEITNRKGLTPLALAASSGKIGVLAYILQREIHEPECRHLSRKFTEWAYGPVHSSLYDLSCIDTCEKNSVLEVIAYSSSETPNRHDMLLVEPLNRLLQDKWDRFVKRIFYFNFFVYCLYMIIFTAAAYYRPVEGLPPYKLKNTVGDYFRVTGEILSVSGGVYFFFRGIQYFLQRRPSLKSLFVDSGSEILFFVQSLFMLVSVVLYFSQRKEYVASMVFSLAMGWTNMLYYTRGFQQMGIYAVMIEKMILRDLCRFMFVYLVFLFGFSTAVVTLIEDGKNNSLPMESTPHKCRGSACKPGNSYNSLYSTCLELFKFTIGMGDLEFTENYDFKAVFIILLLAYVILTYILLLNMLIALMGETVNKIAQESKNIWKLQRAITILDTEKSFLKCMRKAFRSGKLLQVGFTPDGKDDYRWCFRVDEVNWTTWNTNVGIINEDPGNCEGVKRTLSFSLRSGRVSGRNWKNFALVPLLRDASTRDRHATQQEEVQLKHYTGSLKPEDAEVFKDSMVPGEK

| calcium response of cells expressing mutant rTRPV1(Y511G) (rTRPV1(Y511G)) | Compound | depolarization and action potential firing [1] |
| --- | --- | --- |
| responded | NCCOB(c1ccccc1)c1ccccc1 [2-APB, 2-aminoethoxydiphenyl borate] | – |
| – | COc1cc(CNC(=O)CCCC/C=C/C(C)C)ccc1O [capsaicin, Capsaicin] | pronounced depolarization and burst of action potentials, followed by depolarization block; also recorded: robust depolarization with burst of action potentials followed by depolarization block |
